Laboratory results taken from patent US7592326B2, “Method for stimulating the immune, inflammatory or neuroprotective response” (priority 2004, dated 2009).

What was measured:
[1] = tested on: cytokine mRNA in whole lung; assay: Cytokine mRNA levels in whole lung homogenates (quantitative PCR); type: in vivo, Balb/c mice
[2] = tested on: PR8 followed by D39 or NCH57; assay: Secondary bacterial pneumonia following influenza infection in mice (proposed); type: in vivo; conditions: 200 nmol/animal 24- and 48 hours prior to bacterial challenge
Experimental: To show the effect of c-di-GMP secondary bacterial pneumonia following influenza infection, groups of 6 mice are infected with 100 TCID50 of PR8 and challenged 7 days later with either 1000 CFU of D39, or 1×10^7 CFU of NCH57 and followed twice daily for weight loss, development of secondary bacterial infections by bioluminescent imaging, and mortality. One group of mice is treated with c-di-GMP 24- and 48 hours (e.g., orally, intransal, i.p, s.q. i.m.) prior to bacterial challenge with 200 nmol/animal.

For Nc1nc(=O)c2ncn([C@@H]3OC4COP(=O)(O)O[C@H]5[C@@H](O)[C@H](n6cnc7c(=O)nc(N)[nH]c76)O[C@@H]5COP(=O)(O)OC4C3O)c2[nH]1 (stereo partly drawn) [c-di-GMP, Bis(3′→5′)-cyclic diguanylic acid], the “IL-12 p40 levels vs control c-GMP” value ([1]; 24 and 48 hrs post bacterial challenge) was “increased”, the “MIP-2 mRNA, increase over infected control (c-GMP)” value ([1]; 24 hr post Klebsiella challenge, p<0.05, FIG. 17D) was 2 fold and the “IP-10 and IFN-gamma mRNA levels vs control c-GMP” value ([1]; 24 hrs post K. pneumoniae, p<0.05) was “significantly higher”. For the same compound, the “type 1 cytokines IL-12 p40, IFN-gamma, and IP-10 in the lungs” value ([1]; i.n. pre-treatment, time 0 (pre-infection)) was “induction”, the “induction of TNF-α in response to i.t. bacterial administration” value ([1]; pretreatment, data not shown) was “did not significantly alter” and the survival [2] was “greater survival”.
